Where two headings read alike, the source gives them in different places.
Legend:
Format in all cases: cell-based
BaF3_YVMA = assay: Cell growth inhibition assay (CellTiter-Glo), BaF3_YVMA
Description: (§1) Cells were seeded in a 96-well plate (Corning 3610) with 90 μL of culture medium per well, and plates were incubated at 37° C. overnight. A 1,000× DMSO stock solution of the desired compound was prepared the following day. A compound dilution plate was prepared by diluting the stock solution 1:100 in the corresponding cell culture medium, 10 μL of the diluted compound solution was added to each 96-well plate well containing the seeded cells. […] The content of the wells was mixed by shaking continuously for 10 min, and luminescence was measured using Envision (PerkinElmer). The data were analyzed with GraphPad Prism 9 (see FIG. 50).
(§2) Table 6, Table 7, and Table 8 list the cell growth inhibition results, where Gls0 represents the compound concentration to cause 50% cell growth inhibition in comparison with DMSO.

[1] = molecular target: T1, BaF3_YVAM (Her2_A775insYVAM) (Homo sapiens, UniProt P04626, INS775YVMA); assay: EGFR degradation assay (western blot), BaF3_YVAM cells
T1 construct: expressed in transfected cells; host or cells: Ba/F3 (engineered)
T1 sequence (P04626 with tags, fused parts or gaps INS775YVMA): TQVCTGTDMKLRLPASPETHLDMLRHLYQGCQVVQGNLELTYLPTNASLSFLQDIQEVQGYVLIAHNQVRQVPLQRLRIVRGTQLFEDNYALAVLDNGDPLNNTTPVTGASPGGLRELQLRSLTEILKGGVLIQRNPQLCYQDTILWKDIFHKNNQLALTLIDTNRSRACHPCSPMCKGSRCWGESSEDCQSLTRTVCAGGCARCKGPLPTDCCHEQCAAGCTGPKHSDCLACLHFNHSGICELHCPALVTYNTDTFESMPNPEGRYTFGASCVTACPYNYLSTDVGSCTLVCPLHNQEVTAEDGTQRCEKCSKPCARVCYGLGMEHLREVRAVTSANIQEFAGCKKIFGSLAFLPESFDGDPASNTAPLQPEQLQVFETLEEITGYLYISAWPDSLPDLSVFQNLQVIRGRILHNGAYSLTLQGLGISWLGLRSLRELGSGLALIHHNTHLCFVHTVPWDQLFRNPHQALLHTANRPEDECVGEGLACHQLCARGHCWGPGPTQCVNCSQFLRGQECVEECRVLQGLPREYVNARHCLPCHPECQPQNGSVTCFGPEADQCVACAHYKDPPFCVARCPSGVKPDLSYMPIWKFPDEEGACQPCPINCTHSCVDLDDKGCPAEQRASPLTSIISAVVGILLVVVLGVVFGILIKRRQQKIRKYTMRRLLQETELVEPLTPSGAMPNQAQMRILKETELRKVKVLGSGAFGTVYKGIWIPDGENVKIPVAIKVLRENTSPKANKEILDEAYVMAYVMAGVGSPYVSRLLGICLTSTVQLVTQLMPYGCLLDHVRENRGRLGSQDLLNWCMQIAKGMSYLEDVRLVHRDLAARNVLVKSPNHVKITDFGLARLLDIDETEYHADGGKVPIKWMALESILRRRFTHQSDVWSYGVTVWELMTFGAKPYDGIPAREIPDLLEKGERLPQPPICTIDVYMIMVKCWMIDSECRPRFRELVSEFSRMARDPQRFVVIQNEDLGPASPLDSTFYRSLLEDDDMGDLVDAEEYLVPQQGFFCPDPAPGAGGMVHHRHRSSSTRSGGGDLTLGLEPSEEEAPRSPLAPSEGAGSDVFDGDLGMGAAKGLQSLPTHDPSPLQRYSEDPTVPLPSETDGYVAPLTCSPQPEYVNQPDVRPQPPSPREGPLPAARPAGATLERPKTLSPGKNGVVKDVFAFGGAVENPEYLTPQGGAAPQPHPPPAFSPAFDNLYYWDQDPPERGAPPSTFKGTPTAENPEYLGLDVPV
Description: (§3) A431 (EGFR_WT), NCl-H2073 (EGFR_WT), NCl-H292 (EGFR_WT), BaF3_YVAM (Her2_A775insYVAM), BaF3_SVD (EGFR_D770insSVD), BaF3_ASV (EGFR_A776inASV), or BaF3_DTC (EGFR_Exon19del/T790M/C797S) cells were seeded in a 24-well plate at a density of 4×10^5 cells per well for EGFR WT cells and 8× cells per well for EGFR or Her2 mutant cells, and the plates were incubated overnight. The cells were treated with the desired compounds for 24 h. The culture medium was removed, and 100 μL of RIPA buffer (Beyotime, P0013B) containing 1% Protease Inhibitor Cocktail (Bimake, B14001), 1% Phosphatase Inhibitor Cocktail 2 (Sigma, P5726), and 1% Phosphatase Inhibitor Cocktail 3 (Sigma, P0044) were added to lyse the cells. Then, the cell lysates were transferred to 1.5 mL microcentrifuge tubes and centrifuged at 12,000 rpm and 4° C. for 30 min. The supernatants were transferred into new tubes, and the protein concentration was determined using the BCA protein quantification method. All samples were diluted to the same concentration using RIPA buffer, loading buffer was added, samples were denatured, and 15 μg of protein per lane was loaded onto a SurePAGE 4-20% Bis-Tris gel. Samples were separated via electrophoresis in MOPS running buffer at 180 V for 100 min. Then, proteins were transferred onto PVDF membranes using the MiniBlot™ Electrophoretic Transfer Cell Device (Beyotime, E6050). The membrane was blocked using block buffer (LI-COR 927-60001) to prevent non-specific binding. The membrane was incubated with primary antibodies (1:500 dilution, EGFR-CST4405, 1:2000 dilution, Tubulin-ABclonal #AC021) at 4° C. overnight. The membrane was washed three times with 1× TBST buffer for 15 min each. The membrane was incubated with secondary antibodies IRDye 680RD Goat anti-Rabbit IgG Secondary Antibody (1:2000 dilution, LI-COR 926-68071) and IRDye 800CW Goat anti-Mouse IgG Secondary Antibody (1:2000 dilution, LI-COR 926-32210). […] Fluorescence was detected using the Odyssey CLx Imaging System, and the data were analyzed with Empiria Studio Software and GraphPad Prism 9. […]

NCl-H292 (EGFR_WT) = molecular target: T2, NCl-H292 (EGFR_WT) (Homo sapiens, UniProt P00533); assay: EGFR degradation assay (western blot), NCl-H292 cells; conditions: Table 5; NCI-H292 cells (EGFR_WT), 24 h
T2 construct: endogenous in cells; host or cells: A431, NCI-H2073, NCI-H292
T2 sequence (P00533 25-1210): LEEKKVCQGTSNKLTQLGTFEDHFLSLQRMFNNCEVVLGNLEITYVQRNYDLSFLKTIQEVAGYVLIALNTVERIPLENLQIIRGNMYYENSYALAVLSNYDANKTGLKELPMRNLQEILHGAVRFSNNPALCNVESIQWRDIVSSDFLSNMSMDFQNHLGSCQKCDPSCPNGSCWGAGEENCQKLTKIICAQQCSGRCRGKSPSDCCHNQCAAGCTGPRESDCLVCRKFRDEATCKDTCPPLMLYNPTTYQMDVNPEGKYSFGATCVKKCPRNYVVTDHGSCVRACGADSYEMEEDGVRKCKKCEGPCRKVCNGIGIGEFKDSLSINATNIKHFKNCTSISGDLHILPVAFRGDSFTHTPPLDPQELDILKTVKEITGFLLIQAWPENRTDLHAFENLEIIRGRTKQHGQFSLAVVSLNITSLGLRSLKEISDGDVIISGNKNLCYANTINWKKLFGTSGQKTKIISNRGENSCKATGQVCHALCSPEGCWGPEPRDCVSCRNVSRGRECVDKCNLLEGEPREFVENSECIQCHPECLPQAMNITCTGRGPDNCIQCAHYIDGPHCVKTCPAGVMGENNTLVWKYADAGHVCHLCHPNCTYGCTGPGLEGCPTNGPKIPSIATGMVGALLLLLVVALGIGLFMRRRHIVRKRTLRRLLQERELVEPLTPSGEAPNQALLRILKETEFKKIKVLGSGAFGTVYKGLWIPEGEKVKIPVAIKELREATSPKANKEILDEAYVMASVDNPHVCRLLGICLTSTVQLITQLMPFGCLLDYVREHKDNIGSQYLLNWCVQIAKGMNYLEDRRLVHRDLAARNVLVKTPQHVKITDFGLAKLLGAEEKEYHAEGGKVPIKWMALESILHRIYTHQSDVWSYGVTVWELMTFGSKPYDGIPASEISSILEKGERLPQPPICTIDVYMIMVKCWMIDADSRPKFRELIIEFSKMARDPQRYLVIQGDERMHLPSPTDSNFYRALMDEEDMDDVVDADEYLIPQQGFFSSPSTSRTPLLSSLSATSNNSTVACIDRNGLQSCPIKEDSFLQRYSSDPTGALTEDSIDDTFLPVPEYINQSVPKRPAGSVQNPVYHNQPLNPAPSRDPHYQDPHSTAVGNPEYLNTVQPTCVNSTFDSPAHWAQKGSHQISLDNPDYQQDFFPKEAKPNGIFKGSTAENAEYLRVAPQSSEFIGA
Description: as §3, with “min.” for “min. Then, proteins were transferred onto PVDF membranes using the MiniBlot™ Electrophoretic Transfer Cell Device (Beyotime, E6050). The membrane was blocked using block buffer (LI-COR 927-60001) to prevent non-specific binding. The membrane was incubated with primary antibodies (1:500 dilution, EGFR-CST4405, 1:2000 dilution, Tubulin-ABclonal #AC021) at 4° C. overnight. The membrane was washed three times with 1× TBST buffer for 15 min each. The membrane was incubated with secondary antibodies IRDye 680RD Goat anti-Rabbit IgG Secondary Antibody (1:2000 dilution, LI-COR 926-68071) and IRDye 800CW Goat anti-Mouse IgG Secondary Antibody (1:2000 dilution, LI-COR 926-32210).”

NCl-H2073 (EGFR_WT) = molecular target: T3, NCl-H2073 (EGFR_WT) (Homo sapiens, UniProt P00533); assay: EGFR degradation assay (western blot), NCl-H2073 cells; conditions: Table 5; NCI-H2073 cells (EGFR_WT), 24 h
T3 construct: endogenous in cells; host or cells: A431, NCI-H2073, NCI-H292
T3 sequence (P00533 25-1210): as above
Description: as §3, with “min.” for “min. Then, proteins were transferred onto PVDF membranes using the MiniBlot™ Electrophoretic Transfer Cell Device (Beyotime, E6050). The membrane was blocked using block buffer (LI-COR 927-60001) to prevent non-specific binding. The membrane was incubated with primary antibodies (1:500 dilution, EGFR-CST4405, 1:2000 dilution, Tubulin-ABclonal #AC021) at 4° C. overnight. The membrane was washed three times with 1× TBST buffer for 15 min each. The membrane was incubated with secondary antibodies IRDye 680RD Goat anti-Rabbit IgG Secondary Antibody (1:2000 dilution, LI-COR 926-68071) and IRDye 800CW Goat anti-Mouse IgG Secondary Antibody (1:2000 dilution, LI-COR 926-32210).”

[2] = system: BaF3_DTC (EGFR_Exon19del/T790M/C797S); assay: EGFR degradation assay (western blot), BaF3_DTC cells
Method in brief: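 Cells seeded overnight, then exposed to compounds for 24 h; lysates run on western blot, EGFR probed with tubulin loading control and fluorescent secondary detection. DC50 = concentration giving 50% EGFR degradation.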

A431 = assay: Cell growth inhibition assay (CellTiter-Glo), A431; conditions: Homo sapiens, A431 cells
Method in brief: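 This growth inhibition assay reports GI50, the compound concentration producing 50% inhibition of cell growth relative to DMSO. Seeded cells (90 μL medium per well, 96-well Corning 3610 plates, overnight at 37° C.) received 10 μL of compound diluted 1:100 from a 1,000× DMSO stock. Luminescence was measured on Envision (PerkinElmer) and analyzed in GraphPad Prism 9.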

NCI-H292 = assay: Cell growth inhibition assay (CellTiter-Glo), NCI-H292; conditions: Homo sapiens; Table 7; NCI-H292 cells; head prints 24 h
Description: as §1, §2

BaF3_DTC = assay: Cell growth inhibition assay (CellTiter-Glo), BaF3_DTC
BaF3_SVD = assay: Cell growth inhibition assay (CellTiter-Glo), BaF3_SVD
Description: Cells were seeded in a 96-well plate (Corning 3610) with 90 μL of culture medium per well, and plates were incubated at 37° C. overnight. A 1,000× DMSO stock solution of the desired compound was prepared the following day. A compound dilution plate was prepared by diluting the stock solution 1:100 in the corresponding cell culture medium, 10 μL of the diluted compound solution was added to each 96-well plate well containing the seeded cells. Then, the cells were cultured at 37° C. for three days following compound treatment, 100 μL of CellTiter-Glo reagents (Promega G7573) was added to each well of the 96-well plate. The content of the wells was mixed by shaking continuously for 10 min, and luminescence was measured using Envision (PerkinElmer). The data were analyzed with GraphPad Prism 9 (see FIG. 50).
as §2

[3] = BaF3_YVMA, comparison with Compound A, in words

CCc1cc(Nc2ncc(Br)c(Nc3ccc4nccnc4c3NS(C)(=O)=O)n2)c(OC)cc1N1CCC(N2CCN(CCc3cccc4c3n(CC)c(=O)n4C3CCC(=O)NC3=O)CC2)CC1 (stereo not drawn) [Compound 11, N-(6-((5-bromo-2-((4-(4-(4-(2-(1-(2,6-dioxopiperidin-3-yl)-3-ethyl-2-oxo-2,3-dihydro-1H-benzo[d]imidazol-4-yl)ethyl)piperazin-1-yl)piperidin-1-yl)-5-ethyl-2-methoxyphenyl)amino)pyrimidin-4-yl)amino)quinoxalin-5-yl)methanesulfonamide]
Potency in cell growth inhibition compared with Compound A (BaF3_YVMA) (BaF3_YVMA; [3]): significantly increased potency | GI50 (BaF3_YVMA; Table 7, BaF3_YVMA cells, head prints 24 h): 188 nM | Potency in degrading Her2 mutant form compared with Compound A (BaF3_YVMA) [1, 3]: significantly increased potency | DC50 ([1]; Table 5, BaF3_YVMA cells (mutant Her2), 24 h): 33.3 nM | DC50 (NCl-H292 (EGFR_WT)): > 1000 nM | DC50 (NCl-H2073 (EGFR_WT)): > 1000 nM | DC50 ([2]; BaF3_DTC cells (EGFR_Exon19del/T790M/C797S), compounds 24 h, western blot, read-out: BaF3_DTC DC50): 1.2 nM | DC50 ([2]; Table 5, BaF3_Del19/T790M/C797S cells, 24 h, read-out: DC50 (nM), 24 h, BaF3_Del19/T790M/C797S): 1.2 nM | GI50 (A431; A-431, 24 h, Table 7, head prints 24 h, read-out: GI50 (nM), 24 h, A431): 2500 nM | GI50 (A431; A-431, 72 h, Table 6, three days, CellTiter-Glo, read-out: A431 GI50): > 1000 nM | GI50 (NCI-H292): 436 nM | GI50 (BaF3_DTC; 72 h, Table 6, BaF3_DTC cells, three days, CellTiter-Glo, read-out: BaF3_DTC GI50): 6.37 nM | GI50 (BaF3_DTC; Table 7, BaF3_Del19/T790M/C797S cells, head prints 24 h, read-out: GI50 (nM), 24 h, BaF3_Del19/T790M/C797S): 6.37 nM | Potency in cell growth inhibition compared with Compound A (BaF3_SVD) (BaF3_SVD; BaF3_SVD, comparison with Compound A, in words): significantly increased potency | GI50 (BaF3_SVD; Table 7, BaF3_SVD cells): 106 nM

Reference: patent US20250002473A1, “QUINOXALINE DERIVED SULFONAMIDES WITH EGFR DEGRADATION ACTIVITIES AND THEIR USES THEREOF” (Accutar Biotechnology Inc., priority 2023, published 2025)
